In ChEMBL document CHEMBL3232931 (J Med Chem, 2014):

How the values were obtained:
HEK293 = assay: Cytotoxicity against human HEK293 cells assessed as cell viability after 48 hrs by Cell Titer-Glo luminescent assay; type: cell-based; conditions: hek293, 48 h
[1] = Metabolic stability in mouse liver microsomes assessed as parent compound remaining at 1 uM after 15 mins; type: ADME; conditions: read-out: Stability
Liver = assay: Half life in mouse liver microsomes at 1 uM; type: ADME
[2] = biological target: T1, Ubiquitin carboxyl-terminal hydrolase 8 (Homo sapiens) (UniProt P40818); assay: Inhibition of human USP8 using Ub-rhodamine 110 as substrate at 31 uM
T1 sequence (whole entry): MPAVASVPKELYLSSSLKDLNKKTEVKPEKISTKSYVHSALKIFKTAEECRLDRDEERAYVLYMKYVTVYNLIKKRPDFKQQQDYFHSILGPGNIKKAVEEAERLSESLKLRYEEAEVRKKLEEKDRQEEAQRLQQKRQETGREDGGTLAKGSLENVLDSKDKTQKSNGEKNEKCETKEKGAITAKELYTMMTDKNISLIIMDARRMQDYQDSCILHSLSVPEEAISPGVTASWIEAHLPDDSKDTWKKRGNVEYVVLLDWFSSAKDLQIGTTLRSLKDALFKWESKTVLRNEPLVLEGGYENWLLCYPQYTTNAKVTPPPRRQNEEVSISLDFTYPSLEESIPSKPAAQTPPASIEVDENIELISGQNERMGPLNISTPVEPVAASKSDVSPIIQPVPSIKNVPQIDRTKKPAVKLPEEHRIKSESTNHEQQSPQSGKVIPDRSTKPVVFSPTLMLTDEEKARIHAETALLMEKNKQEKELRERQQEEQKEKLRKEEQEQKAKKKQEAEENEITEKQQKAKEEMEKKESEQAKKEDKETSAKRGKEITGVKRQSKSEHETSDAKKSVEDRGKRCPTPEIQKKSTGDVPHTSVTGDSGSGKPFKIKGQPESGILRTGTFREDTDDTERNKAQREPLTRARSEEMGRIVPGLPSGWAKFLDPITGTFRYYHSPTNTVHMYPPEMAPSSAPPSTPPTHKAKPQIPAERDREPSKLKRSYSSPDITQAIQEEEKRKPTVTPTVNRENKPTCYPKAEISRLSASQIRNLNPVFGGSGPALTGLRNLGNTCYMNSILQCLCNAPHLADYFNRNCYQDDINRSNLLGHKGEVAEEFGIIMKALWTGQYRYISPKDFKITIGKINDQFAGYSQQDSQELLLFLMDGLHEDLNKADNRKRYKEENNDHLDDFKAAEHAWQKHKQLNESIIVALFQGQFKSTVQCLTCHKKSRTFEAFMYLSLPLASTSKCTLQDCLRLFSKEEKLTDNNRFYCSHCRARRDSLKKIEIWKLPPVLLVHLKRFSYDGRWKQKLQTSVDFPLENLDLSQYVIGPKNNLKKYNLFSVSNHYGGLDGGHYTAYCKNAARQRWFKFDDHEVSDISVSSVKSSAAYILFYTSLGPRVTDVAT

[3] = biological target: T2, Cathepsin K (Homo sapiens) (UniProt P43235); assay: Inhibition of human cathepsin K using fluorogenic peptide as substrate at 31 uM
T2 sequence (whole entry): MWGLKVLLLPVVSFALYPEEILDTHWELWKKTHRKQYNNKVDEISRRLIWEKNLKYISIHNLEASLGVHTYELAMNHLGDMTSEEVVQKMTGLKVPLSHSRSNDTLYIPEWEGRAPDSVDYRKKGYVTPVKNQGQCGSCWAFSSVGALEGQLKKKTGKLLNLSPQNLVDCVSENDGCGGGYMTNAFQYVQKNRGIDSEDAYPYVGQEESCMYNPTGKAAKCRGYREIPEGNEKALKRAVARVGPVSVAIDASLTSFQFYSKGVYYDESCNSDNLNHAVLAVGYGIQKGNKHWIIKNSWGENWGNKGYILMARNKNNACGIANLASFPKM

[4] = biological target: T3, Ubiquitin carboxyl-terminal hydrolase 2 (Homo sapiens, UniProt O75604); assay: Inhibition of human USP2 using Ub-rhodamine 110 as substrate
T3 sequence (O75604 whole entry): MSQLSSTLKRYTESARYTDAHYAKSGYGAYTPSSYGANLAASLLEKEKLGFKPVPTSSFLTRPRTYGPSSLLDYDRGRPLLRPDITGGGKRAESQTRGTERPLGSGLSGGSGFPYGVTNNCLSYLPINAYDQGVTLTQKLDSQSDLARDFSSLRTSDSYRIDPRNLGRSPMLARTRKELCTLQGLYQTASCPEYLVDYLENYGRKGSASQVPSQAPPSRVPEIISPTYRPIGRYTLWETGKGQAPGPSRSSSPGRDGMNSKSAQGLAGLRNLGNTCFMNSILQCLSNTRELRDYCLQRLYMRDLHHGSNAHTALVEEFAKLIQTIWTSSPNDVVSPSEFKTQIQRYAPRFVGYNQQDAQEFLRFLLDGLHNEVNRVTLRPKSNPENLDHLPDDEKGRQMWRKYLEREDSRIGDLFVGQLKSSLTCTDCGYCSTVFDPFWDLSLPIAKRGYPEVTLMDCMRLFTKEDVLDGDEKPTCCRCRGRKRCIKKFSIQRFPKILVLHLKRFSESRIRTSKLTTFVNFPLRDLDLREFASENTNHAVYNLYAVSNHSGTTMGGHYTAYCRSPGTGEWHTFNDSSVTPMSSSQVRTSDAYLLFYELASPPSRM

[5] = biological target: Ubiquitin carboxyl-terminal hydrolase 7 (Homo sapiens, UniProt Q93009); assay: Inhibition of human USP7 using Ub-rhodamine 110 as substrate
[6] = biological target: T4, Ubiquitin carboxyl-terminal hydrolase 21 (Homo sapiens, UniProt Q9UK80); assay: Inhibition of human USP21 using Ub-rhodamine 110 as substrate
T4 sequence (Q9UK80 whole entry): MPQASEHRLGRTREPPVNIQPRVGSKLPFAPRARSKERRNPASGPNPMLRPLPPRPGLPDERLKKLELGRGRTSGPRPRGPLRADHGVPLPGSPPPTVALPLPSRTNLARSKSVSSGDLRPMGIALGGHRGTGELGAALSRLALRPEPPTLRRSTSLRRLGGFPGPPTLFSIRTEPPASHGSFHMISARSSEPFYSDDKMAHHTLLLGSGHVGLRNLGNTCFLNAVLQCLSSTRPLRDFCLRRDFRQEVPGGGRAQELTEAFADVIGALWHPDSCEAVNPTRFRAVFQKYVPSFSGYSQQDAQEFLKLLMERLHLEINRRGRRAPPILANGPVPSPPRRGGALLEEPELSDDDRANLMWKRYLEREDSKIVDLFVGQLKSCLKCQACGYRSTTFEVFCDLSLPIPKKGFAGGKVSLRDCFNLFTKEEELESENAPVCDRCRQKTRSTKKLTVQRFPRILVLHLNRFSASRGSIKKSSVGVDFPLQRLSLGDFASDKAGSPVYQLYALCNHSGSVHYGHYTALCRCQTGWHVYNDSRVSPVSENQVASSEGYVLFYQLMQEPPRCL

Chain of Ubiquitin carboxyl-terminal hydrolase 7 (Q93009 whole entry): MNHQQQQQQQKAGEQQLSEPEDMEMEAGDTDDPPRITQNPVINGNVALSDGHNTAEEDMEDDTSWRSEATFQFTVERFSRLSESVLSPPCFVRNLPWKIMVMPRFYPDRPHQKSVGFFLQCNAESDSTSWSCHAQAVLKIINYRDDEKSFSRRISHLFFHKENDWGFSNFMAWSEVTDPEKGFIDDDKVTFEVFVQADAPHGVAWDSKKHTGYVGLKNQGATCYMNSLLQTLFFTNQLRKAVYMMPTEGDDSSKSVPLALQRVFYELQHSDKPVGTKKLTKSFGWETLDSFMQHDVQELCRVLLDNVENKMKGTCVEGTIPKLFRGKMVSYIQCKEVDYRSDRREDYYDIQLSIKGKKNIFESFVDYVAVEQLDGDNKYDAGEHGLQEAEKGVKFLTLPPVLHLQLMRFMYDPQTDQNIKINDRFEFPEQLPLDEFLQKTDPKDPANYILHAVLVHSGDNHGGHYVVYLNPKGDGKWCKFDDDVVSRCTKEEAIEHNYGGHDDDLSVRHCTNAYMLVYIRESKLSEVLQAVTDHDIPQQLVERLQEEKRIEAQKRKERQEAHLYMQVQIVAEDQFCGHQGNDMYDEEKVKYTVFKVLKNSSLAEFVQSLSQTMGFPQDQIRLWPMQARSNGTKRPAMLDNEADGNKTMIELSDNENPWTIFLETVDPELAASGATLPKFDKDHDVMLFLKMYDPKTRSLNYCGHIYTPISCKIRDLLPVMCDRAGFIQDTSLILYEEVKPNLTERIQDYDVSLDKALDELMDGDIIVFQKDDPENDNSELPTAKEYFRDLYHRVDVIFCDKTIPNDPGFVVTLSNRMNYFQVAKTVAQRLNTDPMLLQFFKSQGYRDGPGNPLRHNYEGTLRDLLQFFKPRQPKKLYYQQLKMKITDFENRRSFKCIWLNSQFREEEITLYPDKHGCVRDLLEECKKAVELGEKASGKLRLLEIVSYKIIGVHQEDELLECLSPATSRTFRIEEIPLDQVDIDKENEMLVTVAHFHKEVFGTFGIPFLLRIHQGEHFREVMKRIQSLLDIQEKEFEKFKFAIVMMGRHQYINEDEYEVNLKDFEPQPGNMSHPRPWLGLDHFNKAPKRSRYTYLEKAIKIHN

Structure (SMILES)	CC50 (HEK293)	remaining at 0.25 h, 1 µM [1]	t1/2 (Liver)	inhibition [2]	inhibition [3]	IC50 ([4]; read-out: IC50)	IC50 ([5]; read-out: IC50)	IC50 [6]	IC50 [4]	IC50 [5]
CC(=O)Nc1cccc(CNC(=O)C2CCN([C@H](C)c3cccc4ccccc34)CC2)c1	68 µM	20%	7 min	10%	< 10%	> 100 µM	> 100 µM	> 31 µM	–	–
C[C@H](c1cccc2ccccc12)N1CCC(C(=O)NCc2ccc(F)cc2)CC1	73 µM	–	–	10%	< 10%	–	–	> 31 µM	Not Active	Not Active
C[C@H](c1cccc2ccccc12)N1CCC(C(=O)NCc2ccc3c(c2)OCO3)CC1	> 100 µM	0.2%	1.6 min	10%	< 10%	–	–	> 31 µM	Not Active	Not Active
C[C@H](c1cccc2ccccc12)N1CCC(C(=O)NCc2cccc(F)c2)CC1	73 µM	1.2%	2.8 min	10%	< 10%	–	–	> 31 µM	Not Active	Not Active
